Laboratory results reported in patent US9770445B2, “Sulfoximine substituted 5-fluoro-N-(pyridin-2-yl)pyridin-2-amine derivatives and their use as CDK9 kinase inhibitors” (BAYER PHARMA AKTIENGESELLSCHAFT, priority 2013, dated 2017).

Target: T1, CDK2/CycE (Homo sapiens, UniProt P24941)
T1 construct: GST; purchased ProQinase GmbH (Freiburg, Germany); host or cells: insect cells (Sf9)
Assay: CDK2/CycE kinase assay (Method 2, TR-FRET)
Assay type: biochemical
Conditions: Method 2, 10 μM ATP
Text: 2. CDK2/CycE Kinase Assay:
CDK2/CycE-inhibitory activity of compounds of the present invention was quantified employing the CDK2/CycE TR-FRET assay as described in the following paragraphs:
Recombinant fusion proteins of GST and human CDK2 and of GST and human CycE, expressed in insect cells (Sf9) and purified by Glutathion-Sepharose affinity chromatography, were purchased from ProQinase GmbH (Freiburg, Germany). As substrate for the kinase reaction biotinylated peptide biotin-Ttds-YISPLKSPYKISEG (C-terminus in amid form) was used which can be purchased e.g. form the company JERINI Peptide Technologies (Berlin, Germany).
For the assay 50 nl of a 100 fold concentrated solution of the test compound in DMSO was pipetted into a black low volume 384 well microtiter plate (Greiner Bio-One, Frickenhausen, Germany), 2 μl of a solution of CDK2/CycE in aqueous assay buffer [50 mM Tris/HCl pH 8.0, 10 mM MgCl2, 1.0 mM dithiothreitol, 0.1 mM sodium ortho-vanadate, 0.01% (v/v) Nonidet-P40 (Sigma)] were added and the mixture was incubated for 15 min at 22° C. to allow pre-binding of the test compounds to the enzyme before the start of the kinase reaction. Then the kinase reaction was started by the addition of 3 μl of a solution of adenosine-tri-phosphate (ATP, 16.7 μM=>final conc. in the 5 μl assay volume is 10 μM) and substrate (1.25 μM=>final conc. in the 5 μl assay volume is 0.75 μM) in assay buffer and the resulting mixture was incubated for a reaction time of 25 min at 22° C. The concentration of CDK2/CycE was adjusted depending of the activity of the enzyme lot and was chosen appropriate to have the assay in the linear range, typical concentrations were in the range of 130 ng/mL. The reaction was stopped by the addition of 5 μl of a solution of TR-FRET detection reagents (0.2 μM streptavidine-XL665 [Cisbio Bioassays, Codolet, France] and 1 nM anti-RB(pSer807/pSer811)-antibody from BD Pharmingen [#558389] and 1.2 nM LANCE EU-W1024 labeled anti-mouse IgG antibody [Perkin-Elmer, product no. AD0077]) in an aqueous EDTA-solution (100 mM EDTA, 0.2% (w/v) bovine serum albumin in 100 mM HEPES/NaOH pH 7.0).
The resulting mixture was incubated 1 h at 22° C. to allow the formation of complex between the phosphorylated biotinylated peptide and the detection reagents. Subsequently the amount of phosphorylated substrate was evaluated by measurement of the resonance energy transfer from the Eu-chelate to the streptavidine-XL. Therefore, the fluorescence emissions at 620 nm and 665 nm after excitation at 350 nm was measured in a TR-FRET reader, e.g. a Rubystar (BMG Labtechnologies, Offenburg, Germany) or a Viewlux (Perkin-Elmer). The ratio of the emissions at 665 nm and at […] was taken as the measure for the amount of phosphorylated substrate. The data were normalised (enzyme reaction without inhibitor=0% inhibition, all other assay components but no enzyme=100% inhibition).

Row | IC50 [nM] | SMILES
1 | 121 | CS(=N)(=O)Cc1ccnc(Nc2cc(-c3ccc(F)c4ccoc34)c(F)cn2)c1 (single isomer, unassigned; (-)) [Example 15, (−)-5-Fluoro-4-(4-fluoro-1-benzofuran-7-yl)-N-{4-[(S-methylsulfonimidoyl)methyl]pyridin-2-yl}pyridin-2-amine]
2 | 142 | CS(=N)(=O)Cc1ccnc(Nc2cc(-c3ccc(F)c4ccoc34)c(F)cn2)c1 (single isomer, unassigned; (+)) [Example 14, (+)-5-Fluoro-4-(4-fluoro-1-benzofuran-7-yl)-N-{4-[(S-methylsulfonimidoyl)methyl]pyridin-2-yl}pyridin-2-amine]
